One data set addresses T1, Recombinant Human PDE IV Enzyme (HSPDE4A) (Homo sapiens, UniProt P27815).
T1 construct: made in house; host or cells: E. coli
The data set is described as follows: Inhibition Test on Recombinant Human PDE IV Enzyme. The data set is classed as biochemical. The conditions noted are these: substrate [3H]cAMP 1 μmol/L. Here is the method: Inhibition Test on Recombinant Human PDE IV Enzyme
Human phosphodiesterase cDNA (HSPDE4A) was isolated from testicles. Its predicted amino acid sequence is identical with the sequence (HSPDE4A5) reported by Bolger, G. et al. (Mol. Cell. Biol., 6558 (1993)) except that 223 amino acids have been deleted from the N-terminal thereof. This recombinant protein was expressed by an E. coli expression plasmid and then purified. The PDE activity was measured in the following 2-step process according to the method of Kincaid, R. and Manganiello, V. [Method. Enzymol., 159, 457 (1988)]. The substrate used was [^3H]cAMP (final concentration: 1 μmol/L), and the reaction was performed in a standard mixture containing N,N-bis(2-hydroxyethyl)-2-aminoethanesulfonic acid (50 mmol/L, pH 7.2), MgCl2 (1 mmol/L) and soybean trypsin inhibitor (0.1 mg/ml). The reaction was initiated by adding the enzyme thereto, and the mixture was incubated at 30° C. for 10 to 30 minutes. The reaction was quenched by hydrochloric acid, and the formed 5′-AMP was completely decomposed with […]. This sample was subjected to chromatography on DEAE-Sephadex A-25, and the eluted [^3H]adenosine was counted […] with a scintillation counter. The test compound was added after dissolved (concentration: 1.7%) in DMSO.
T1 sequence (P27815 224-886 limits assumed): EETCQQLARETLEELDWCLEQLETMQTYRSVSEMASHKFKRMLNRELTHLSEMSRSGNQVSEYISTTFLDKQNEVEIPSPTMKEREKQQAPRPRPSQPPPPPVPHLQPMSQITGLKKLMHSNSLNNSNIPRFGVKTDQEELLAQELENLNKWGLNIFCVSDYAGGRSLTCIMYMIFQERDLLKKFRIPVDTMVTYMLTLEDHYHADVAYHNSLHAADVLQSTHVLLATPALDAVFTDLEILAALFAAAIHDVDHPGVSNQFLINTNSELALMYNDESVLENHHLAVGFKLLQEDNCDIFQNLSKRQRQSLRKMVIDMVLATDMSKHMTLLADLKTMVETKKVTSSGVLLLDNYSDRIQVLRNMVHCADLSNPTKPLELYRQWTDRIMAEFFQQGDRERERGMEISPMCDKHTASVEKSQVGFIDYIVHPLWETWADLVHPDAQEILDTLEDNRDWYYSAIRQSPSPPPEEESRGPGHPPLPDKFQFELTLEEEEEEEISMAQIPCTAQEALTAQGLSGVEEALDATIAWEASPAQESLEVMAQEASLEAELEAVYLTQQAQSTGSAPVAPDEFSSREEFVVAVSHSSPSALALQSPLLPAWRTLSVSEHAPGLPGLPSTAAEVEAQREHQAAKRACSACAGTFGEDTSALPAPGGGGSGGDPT
Take `COc1ccc(C2(C#N)CCC(C(=O)O)CC2)c2c1OCCO2` (stereo not drawn) [Compound 5, cis-4-Cyano-4-(8-methoxy-1,4-benzodioxan-5-yl)cyclohexanecarboxylic acid]: the enzyme inhibitory activity entry is “over 87%”.

Test system in a further data set: not given
Assay: not given
Settings: not given
`COC=C1CCC(C#N)(c2ccc(OC)c3c2OCCO3)CC1` (stereo not drawn) [Compound 6, 1-(8-Methoxy-1,4-benzodioxan-5-yl)-4-methoxymethylenecyclohexane carbonitrile] displayed a melting point of 112 to 113 °C.
On the same count and under the same terms, then `CCOC(=O)C=C1CCC(C#N)(c2ccc(OC)c3c2OCCO3)CC1` (stereo not drawn) [Compound 10, Ethyl 4-cyano-4-(8-methoxy-1,4-benzodioxan-5-yl)cyclohexanylideneacetate], with 110 to 112 °C; and `COc1ccc(C2(C#N)CCC(=CC(=O)O)CC2)c2c1OCCO2` (stereo not drawn) [Compound 11, 4-Cyano-4-(8-methoxy-1,4-benzodioxan-5-yl)cyclohexanylideneacetic acid], with 203 to 204 °C; and `COc1ccc(-c2cccc3c2COC3=O)c2c1OCCO2` [Compound 22, 4-(8-Methoxy-1,4-benzodioxan-5-yl)-1(3H)-isobenzofuranone], with 158 to 160 °C.
On the same count and under the same terms, then `COc1ccc(-c2ccc3c(c2)C(=O)NC3=O)c2c1OCCO2` [Compound 23, 4-(8-Methoxy-1,4-benzodioxan-5-yl)phthalimide], with 285 to 287 °C.

(Values after patent US6376535B2, “Oxygen-containing heterocyclic compounds” (Kyowa Hakko Kogyo Co., Ltd., priority 1998, dated 2002).)
